From patent US11433087B2, “Anti-tumor compound with high CD169 affinity, method thereof, and use thereof” (Xiamen Nuokangde Biological Technology Co., Ltd., priority 2017, dated 2022)

Assays:
[1] = test system: B16F10 cells; assay: Phagocytic effects of macrophages (BMDM) on tumor cells, lactate dehydrogenase cytotoxicity test kit; assay type: cell-based, mouse; settings: BMDM and B16F10 cells 5:1; compared with control group medium added with Neu5Ac; FIG. 5
Description: Taking out bone marrow of 10 week old mice, adding with a solution of potassium ammonium chloride (ACK), and then culturing cells of the bone marrow in an Iscove's modified dulbecco medium (IMDM) comprising 10% (volume ratio) fetal bovine serum (FBS) and 10 ng/mL macrophage […] stimulating factor to obtain bone marrow derived macrophages (BMDM). Culturing BMDM and B16F10 cells of a ratio of 5:1 respectively in an experimental group medium and a control group medium. Adding TCC-Neu5Ac to the experimental group medium, adding Neu5Ac of the same volume to the control group medium, detecting by Lactate dehydrogenase cytotoxicity test kit, selecting a 490 nm absorption peak in a microplate reader, and converting to phagocytic killing efficiency.

[2] = test system: B16F10 cells; assay: Anti-tumor effects in tumor-bearing mice injected with the compound; assay type: in vivo, mice B6 (C57BL/6); settings: subcutaneous B16F10 in C57BL/6 mice; tail vein injection of 100 mL PBS, 100 μmol, every two days, 15 days; versus 100 μmol natural sialic acid; FIG. 6-9
Description: Culturing B16F10 cells in a 10 cm cell culture dish to a density of 80%;
(§1) Digesting with 2 mL tyrisin for 90 seconds, neutralizing with 2 mL medium, centrifuging under 300 g for 3 minutes, rinsing with PBS repeatedly, centrifuging once to remove any remaining medium, and adding PBS to resuspend and count an amount of the B16F10 cells;
Injecting subcutaneously 1 million of the B16F10 cells into mice B6 (C57BL/6) for tumor planting, and then injecting […] PBS comprising the anti-tumor compound of the present disclosure with a concentration of 100 μmol from a tail vein of mice every two days as an experimental group 1;
Injecting PBS of the same volume comprising 100 μmol natural sialic acid as a control group 1, and the other conditions of the control group 1 are the same as the experimental group 1; and
After 15 days, removing hair from tumor areas of the mice, taking pictures (as shown in FIG. 6 and FIG. 7), taking out tumors from the mice, and taking pictures for analysis.

[3] = test system: human malignant glioma cells (U87); assay: Toxicity in cells (counting dead cells, cell survival rate); assay type: cell-based; settings: U87, different concentrations 0-100 μmol, 24 hours; FIG. 4
Description: Culturing human malignant glioma cells (U87) in the constant temperature incubator containing 5% CO2 at 37° C., and a seventh medium of the human malignant glioma cells is DMEM containing 10% fetal bovine serum;
Transferring the human malignant glioma cells to a confocal cell culture dish, culturing to a density of 50%, removing the seventh medium, adding an eighth medium comprising TCC-Neu5Ac of different concentrations from 0 to 100 μmol (100 μM), and further culturing for 24 hours; and
Removing the eighth medium comprising TCC-Neu5Ac, washing carefully with PBS for three times, adding a ninth medium, and counting dead cells of the human malignant glioma cells.
Counting results of the dead cells are shown in FIG. 4, wherein abscissa represents different concentrations of TCC Neu5Ac in the eight medium, and ordinate represents a cell survival rate of the human malignant glioma cells. […] Therefore, the anti-tumor compound with high CD169 affinity of the present disclosure has extremely low toxicity in the cells and has potential ability for human tumor treatment.

[4] = test system: B16F10 cells; assay: Tumor metastasis analysis model in mice; assay type: in vivo, B6 mice (C57BL/6); settings: B16F10 injected from tail veins in C57BL/6 mice; 200 μL, 100 μmol, tail vein every two days, 15 days; versus 100 μmol natural sialic acid (Neu5Ac); FIG. 14
Description: as §1, with “Culturing B16F10 cells in a 10 cm cell culture dish to a density of 80%, digesting” for “Digesting”, “residual” for “remaining”, “cells.” for “cells;”
Injecting 1 million of the B16F10 cells into B6 mice (C57BL/6) from tail veins for preparing a tumor metastasis analysis model. Then, injecting 200 μL of an aqueous solution comprising the 100 μmol of the anti-tumor compound with high CD169 affinity of the present disclosure every two days from tail veins as an experimental group 3, and injecting water solution with the same volume comprising 100 μmol of natural sialic acid (Neu5Ac) as a control group 3. After 15 days, removing hair from tumor areas of the B6 mice and taking pictures. Then, taking out tumors from the B6 mice and taking pictures for analysis. An ordinate position of a black solid circle indicates a number of the tumors transferred to lungs of a mouse of the experimental group 3. An ordinate position of one black solid square indicates a number of the tumors transferred to lungs of a mouse of the control group 3. It can be seen from FIG. 14 that the number of the tumors transferred to the lungs in the experimental group 3 is far lower than that in the control group 3. […]

[5] = test system: B16F10 cells; assay: Anti-tumor effects in tumor-bearing mice orally administrated with the compound; assay type: in vivo, B6 mice (C57BL/6); settings: subcutaneous B16F10 in C57BL/6 mice; oral 200 μL aqueous solution, 100 μmol, daily, 15 days; versus natural sialic acid; FIG. 10-13
Description: Culturing B16F10 cells in a 10 cm cell culture dish to a density of 80%, digesting with 2 mL tyrisin for 90 seconds, neutralizing with 2 mL medium, centrifuging under 300 g for 3 minutes, rinsing with PBS repeatedly, centrifuging once to remove any residual medium, adding PBS to resuspend and count an amount of the B16F10 cells, and injecting subcutaneously 1 million of the B16F10 cells into the of B6 mice (C57BL/6) for tumor planting;
Feeding 200 μL of an aqueous solution comprising the 100 μmol of the anti-tumor compound with high CD169 affinity of the present disclosure daily as an experimental group 2;
Feeding water solution with the same volume comprising natural sialic acid as a control group 2; and
After 15 days, removing hair from tumor areas of the B6 mice, taking pictures, taking out tumors from the B6 mice, and taking pictures for analysis.

With `CC(=O)N[C@@H]1C(O)C[C@](O)(C(=O)O)OC1C(O)C(O)CNC(=O)c1cc2c(s1)-c1ccccc1OC2` (some centres unmarked) [TCC-Neu5Ac, 9-benzopyranothiophene-n-acetylneuraminic acid monosaccharide] the “killing rate of phagocytes to tumors” value [1] was “significantly higher”, the “sizes of the tumors” value [2] was “significantly smaller” and the “cell survival rate of the human malignant glioma cells” value [3] was “does not differ much”. The “number of the tumors transferred to the lungs” value [4] was “far lower” and the “sizes of the tumors” value [5] was “significantly smaller”.
